The conditions of data set [1]: intramuscular injection; cited from earlier work.
A short description of data set [2]: Plasma concentration after oral administration. The note with it: 100 mg/kg in 0.5% CMC suspension p.o.; 0.5 and 4 h; among 14b, 14g, 24a, 24c, 28a, 28c. Format: in vivo, mice.

In the case of `C[C@]12CC[C@@H]3c4ccc(O)cc4C[C@@H](CCCCCCCCC[S+]([O-])CCCC(F)(F)C(F)(F)F)[C@H]3[C@@H]1CC[C@@H]2O` (stereo partly shown) [Compound 1, fulvestrant], the “lag to reach steady-state concentrations” value in data set [1] was 3–6 month.
Consider `Cc1cc(F)cc(C)c1C(=O)c1sc2cc(O)ccc2c1Oc1ccc(/C=C/C(=O)O)cc1` [Compound 24c], for which the plasma levels result in data set [2] was “highest plasma levels”.
As for `Cc1ccc(C(=O)c2sc3cc(O)ccc3c2Oc2ccc(/C=C/C(=O)O)cc2)c(C)c1` [Compound 28a, (E)-3-(4-((2-(2,4-dimethylbenzoyl)-6-hydroxybenzo[b]thiophen-3-yl)oxy)phenyl)acrylic acid], the plasma levels entry in data set [2] is given as “highest plasma levels”.
The same measure, in the same setting: the same measure for `Cc1cc(Cl)cc(C)c1C(=O)c1sc2cc(O)ccc2c1Oc1ccc(/C=C/C(=O)O)cc1` [Compound 28c, (E)-3-(4-((2-(4-chloro-2,6-dimethylbenzoyl)-6-hydroxybenzo[b]thiophen-3-yl)oxy)phenyl)acrylic acid]: “highest plasma levels”.

The record behind these values is paper PMC5786431 (Journal of medicinal chemistry, 2017).
